This assay addresses T1, gamma-secretase (Homo sapiens, UniProt P49768).
T1 construct: a partially purified extract of IMR-32 cell membranes as the gamma-secretase enzyme preparation; endogenous in cells; host or cells: IMR-32 cell membranes, partially purified extract
The assay is described as follows: Gamma-secretase APP enzyme assay (cleavage of MBP-C125swe substrate, sandwich ELISA). It counts as biochemical. The settings on record: partially purified extract of IMR-32 cell membranes as enzyme, 2 h at 37° C, ELISA detection of cleavage product, read-out: γAPP. From the text:
The gamma-secretase APP enzyme assay was designed to measure the specific proteolytic cleavage of an APP substrate (MBP-C125 Swe fusion protein) at the […] site. The assay used a partially purified extract of IMR-32 cell membranes as the gamma-secretase enzyme preparation and a recombinant fusion protein containing the C-terminal 125 amino acids of the Swedish variant of the APP (MBP-C125swe) as the substrate. This assay involved two steps beginning with the enzymatic reaction generating a cleavage product that was captured with an immobilized antibody specific for the neo-epitope […] site. The captured cleavage product was then detected in a sandwich ELISA assay with a biotinylated reporter antibody that is specific to Aβ (17-28). Streptavidin-linked alkaline phosphatase was then added that would generate a fluorescent signal proportional to the amount of cleavage product. This assay was used to discover small molecule inhibitors of gamma-secretase. Briefly, a 149 mg/ml solution of […] detergent was made with water at 42° C. and then rotated for 30 minutes at the same temperature. […] Louis, Mo.) to a concentration of 8 mg/ml. This solution containing BigCHAPS and lipid at 8 mg/ml is then diluted to 0.53 mg/ml lipid with a pre-warmed solution of Hepes and sodium chloride. This final solution containing Hepes buffer, sodium chloride, BigCHAPS detergent and lipid is used to create working solutions of both gamma-secretase (25 Units) and the MBP-C125 substrate (0.05 mg/ml). Gamma-secretase was then added to a 96-well micro-titre plate and then incubated with various concentrations of inhibitor for 30 minutes at 37° C. MBP-C125 substrate was then added to initiate the reaction that would run for two hours at 37° C. The reaction was quenched with the addition of SDS to a final concentration of 0.1% and then 100 μl of the reaction mixture was transferred to a capture ELISA plate and incubated overnight at 4° C. Detection of the cleavage product was performed using a standard sandwich ELISA assay and quantified using a six point standard curve.
For orientation: ELISA stands for enzyme-linked immunosorbent assay.

For `O=S(=O)(c1ccc(Br)cc1)N1C2CCCC1CC2` [8-(4-bromophenylsulfonyl)-8-azabicyclo[3.2.1]octane], the IC50 fell in the range of 2000 to 5000 nM. With `O=S(=O)(c1ccc(Cl)cc1)N1C2CCCC1CC2` [8-(4-chlorophenylsulfonyl)-8-azabicyclo[3.2.1]octane], the IC50 lay within 2000 to 5000 nM. The same measure for `O=S(=O)(c1ccc(C(F)(F)F)cc1)N1C2CCCC1CCC2` [9-(4-(trifluoromethyl)phenylsulfonyl)-9-azabicyclo[3.3.1]nonane]: 2000 to 5000 nM. The same measure for `O=S(=O)(c1ccc(Br)c(F)c1)N1C2CCCC1CCC2` [9-(4-bromo-3-fluorophenylsulfonyl)-9-azabicyclo[3.3.1]nonane]: 2000 to 5000 nM. The same measure for `O=S(=O)(c1ccc(Br)cc1)N1C2CCCC1CCC2` [9-(4-bromophenylsulfonyl)-9-azabicyclo[3.3.1]nonane]: 1000 to 2500 nM. As to `O=C1NCC2CCCC1N2S(=O)(=O)c1ccc(Cl)cc1` (stereo not shown) [9-(4-chlorophenylsulfonyl)-3,9-diazabicyclo[3.3.1]nonan-2-one], the IC50 fell in the range of 2000 to 5000 nM. The same measure for `C=C1CC2CCCC(C1)N2S(=O)(=O)c1ccc(Cl)cc1` [9-(4-chlorophenylsulfonyl)-3-methylene-9-azabicyclo[3.3.1]nonane]: less than 1000 nM; for `O=S(=O)(c1ccc(Cl)cc1)N1C2CCCC1COC2` [9-(4-chlorophenylsulfonyl)-3-oxa-9-azabicyclo[3.3.1]nonane]: 2000 to 5000 nM; for `O=S(=O)(c1ccc(Cl)cc1)N1C2CCCC1CN(c1ccccc1)C2` [9-(4-chlorophenylsulfonyl)-3-phenyl-3,9-diazabicyclo[3.3.1]nonane]: 1000 to 2500 nM. In the case of `O=S(=O)(c1ccc(Cl)cc1)N1C2CCCC1CSC2` [9-(4-chlorophenylsulfonyl)-3-thia-9-azabicyclo[3.3.1]nonane], the IC50 is less than 1000 nM. For `O=S(=O)(c1ccc(Cl)cc1)N1C2CCCC1CC(O)C2` (stereo not shown) [9-(4-chlorophenylsulfonyl)-9-azabicyclo[3.3.1]nonan-3-ol], the IC50 lay in the range of 2000 to 5000 nM. The result for `O=S(=O)(c1ccc(Cl)cc1)N1C2CCCC1CC(=NO)C2` [9-(4-chlorophenylsulfonyl)-9-azabicyclo[3.3.1]nonan-3-one oxime] reads 2000 to 5000 nM. `O=C1CC2CCCC(C1)N2S(=O)(=O)c1ccc(Cl)cc1` [9-(4-chlorophenylsulfonyl)-9-azabicyclo[3.3.1]nonan-3-one]: the IC50 is less than 1000 nM.

Consider `O=S(=O)(c1ccc(Cl)cc1)N1C2CCCC1CCC2` [9-(4-chlorophenylsulfonyl)-9-azabicyclo[3.3.1]nonane], for which the IC50 was in the range of 1000 to 2500 nM.

Take `O=S(=O)(c1ccc(Br)s1)N1C2CCCC1CCC2` [9-(5-bromothiophen-2-ylsulfonyl)-9-azabicyclo[3.3.1]nonane]: the IC50 is 2000 to 5000 nM. The result for `O=S(=O)(c1ccc(Cl)s1)N1C2CCCC1CCC2` [9-(5-chlorothiophen-2-ylsulfonyl)-9-azabicyclo[3.3.1]nonane] reads 2000 to 5000 nM.

With `O=C1NC(=O)C2CCCC1N2S(=O)(=O)c1ccc(Cl)cc1` [9-[(4-chlorophenyl)sulfonyl]-3,9-diazabicyclo[3.3.1]nonane-2,4-dione], the IC50 is less than 1000 nM.

Consider `CS(=O)(=O)OC1CC2CCCC(C1)N2S(=O)(=O)c1ccc(Cl)cc1` (stereo not shown) [Methanesulfonic acid 9-(4-chloro-benzenesulfonyl)-9-aza-bicyclo[3.3.1]non-3-yl ester], for which the IC50 is 1000 to 2500 nM. On to `CN(C(=O)OC(C)(C)C)C1CC2CCCC(C1)N2S(=O)(=O)c1ccc(Cl)cc1` (stereo not shown) [[9-(4-Chloro-benzenesulfonyl)-9-aza-bicyclo[3.3.1]non-3-yl]-methyl-carbamic acid tert-butyl ester], for which the IC50 was less than 1000 nM.

The values above are taken from patent US20110178119A1, “Bridged N-Bicyclic Sulfonamido Inhibitors of Gamma Secretase” (ELAN PHARMACEUTICALS, INC., priority 2005, published 2011).
